US8735431B2, “Active compound combinations having insecticidal properties” (priority 2003, dated 2014)

Columns and labels:
Format in all cases: in vivo
[1] = tested on: Aphis gossypii; test: Aphis gossypii test (cotton leaves dipped); conditions: 4 ppm
Protocol: (§1) To produce a suitable preparation of active compound, 1 part by weight of active compound is mixed with the stated amounts of solvent and emulsifier, and the concentrate is diluted with emulsifier-containing water to the desired concentration.
Cotton leaves (Gossypium hirsutum) which are heavily infested by the cotton aphid (Aphis gossypii) are treated by being dipped into the preparation of active compound of the desired concentration. After the desired period of time, the kill in % is determined. 100% means that all aphids have been killed; 0% means that none of the aphids have been killed. The determined kill ratios are entered into Colby's formula (see page 39).

[2] = tested on: Plutella xylostella, resistant strain; test: Plutella xylostella test (resistant strain)
Protocol: as §1
Cabbage leaves (Brassica oleracea) are treated by being dipped into the preparation of active compound of the desired concentration and are populated with caterpillars of the diamondback moth (Plutella xylostella, resistant strain) while the leaves are still moist.
(§2) After the desired period of time, the kill in % is determined. 100% means that all caterpillars have been killed; 0% means that none of the caterpillars have been killed. The determined kill ratios are entered into Colby's formula (see page 39).

[3] = tested on: Plutella xylostella, normally sensitive strain; test: Plutella xylostella test (normally sensitive strain)
Protocol: as §1
Cabbage leaves (Brassica oleracea) are treated by being dipped into the preparation of active compound of the desired concentration and are populated with caterpillars of the diamondback moth (Plutella xylostella, normally sensitive strain) while the leaves are still moist.
as §2

[4] = tested on: Myzus persicae; test: Myzus persicae test (cabbage leaves dipped); conditions: 20 ppm
Protocol: as §1
Cabbage leaves (Brassica oleracea) which are heavily infested by the green peach aphid (Myzus persicae) are treated by being dipped into the preparation of active compound of the desired concentration.
After the desired period of time, the kill in % is determined. 100% means that all aphids have been killed; 0% means that none of the aphids have been killed. The determined kill ratios are entered into Colby's formula (see page 39).

[5] = tested on: Spodoptera exigua; test: Spodoptera exigua test (cabbage leaves dipped)
Protocol: as §1
Cabbage leaves (Brassica oleracea) are treated by being dipped into the preparation of active compound of the desired concentration and are populated with caterpillars of the beet army worm (Spodoptera exigua) while the leaves are still moist.
as §2

[6] = tested on: Phaedon cochleariae larvae; test: Phaedon cochleariae larvae test (cabbage leaves dipped)
Protocol: as §1
Cabbage leaves (Brassica oleracea) are treated by being dipped into the preparation of active compound of the desired concentration and are populated with larvae of the mustard beetle (Phaedon cochleariae) while the leaves are still moist.
After the desired period of time, the kill in % is determined. 100% means that all beetle larvae have been killed; 0% means that none of the beetle larvae have been killed. The determined kill ratios are entered into Colby's formula (see page 39).

[7] = tested on: Heliothis armigera; test: Heliothis armigera test (soybean shoots dipped)
Protocol: as §1
Soybean shoots (Glycine max) are treated by being dipped into the preparation of active compound of the desired concentration and are populated with caterpillars of the cotton bollworm (Heliothis armigera) while the leaves are still moist.
as §2

Compound: N#Cc1nn(-c2c(Cl)cc(C(F)(F)F)cc2Cl)c(N)c1[S+]([O-])C(F)(F)F (stereo not drawn) [(2-16) fipronil, fipronil, reference compound]
- Kill rate in % after 6d found [1]: 0%
- Kill rate in % after 4d found ([2]; 0.0064 ppm): 0%
- Kill rate in % after 6d found ([3]; 0.0064 ppm): 15%

Compound: CC[S+]([O-])c1c(C#N)nn(-c2c(Cl)cc(C(F)(F)F)cc2Cl)c1N (stereo not drawn) [(2-17) ethiprole, ethiprole, reference compound]
- Kill rate in % after 1d found [4]: 50%

Compound: COC(=O)N(C(=O)N1COC2(C(=O)OC)Cc3cc(Cl)ccc3C2=N1)c1ccc(OC(F)(F)F)cc1 (stereo not drawn) [(2-21) indoxacarb, indoxacarb, reference compound]
- Kill rate in % after 6d found ([5]; 0.16 ppm): 70%
- Kill rate in % after 6d found ([6]; 0.032 ppm): 10%

Compound: Cc1cc(Cl)cc(C(=O)NC(C)C)c1NC(=O)c1cc(C(F)(F)F)nn1-c1ncccc1Cl [Example I-1-9]
- Kill rate in % after 6d found ([5]; 0.0064 ppm): 15%
- Kill rate in % after 6d found ([5]; 0.032 ppm): 10%
- Kill rate in % after 6d found ([6]; 0.0064 ppm): 0%
- Kill rate in % after 1d found [4]: 0%
- Kill rate in % after 6d found [1]: 10%
- Kill rate in % after 4d found ([2]; 0.00128 ppm): 0%
- Kill rate in % after 6d found ([2]; 0.032 ppm, 6 d): 10%
- Kill rate in % after 6d found ([3]; 0.00128 ppm): 0%
- Kill rate in % after 4d found ([3]; 0.16 ppm, 4 d): 0%
- Kill rate in % after 6d found ([7]; 0.0064 ppm): 20%
- Kill rate in % after 3d found ([7]; 0.032 ppm, 3 d): 45%
- Kill rate in % after 6d found ([7]; 0.032 ppm): 0%
